Experimental data published in PubChem BioAssay AID1963982 (Molecular Pharmacology Branch, DTP, NCI, 2024).
“And” between values parts separate entries of the source, which are not always exact repeats. Equal values may be shown once. One block for each compound: values may come before it.

Tested on: 313798-341-R-J2-PDC spheroids, viability
Assay: Anticancer human tumor 313798-341-R-J2-PDC patient-derived cervical squamous cell carcinoma cell line growth inhibition [PI3K]
Settings: spheroids with HUVEC and MSC; for viability, T/C: stronger effect = lower value
Summary of the method: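 Spheroid viability read-out. Co-cultures contained the tumor line plus HUVEC and human MSCs. Each agent was paired with a PI3K inhibitor (inavolisib, alpelisib, duvelisib, copanlisib) across half-log dilutions starting at clinical Cmax, or at 10 microM when Cmax was unknown.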

[1] = curve of first compound, second compound 0.00316 µM
[2] = curve of first compound, second compound 0.01 µM
[3] = curve of first compound, second compound 0.0316 µM
[4] = curve of first compound, second compound 0.1 µM
[5] = curve of first compound, second compound 0.316 µM
[6] = curve of first compound, second compound 1 µM
[7] = second compound 0.00316 µM, first compound 0.000316 µM
[8] = second compound 0.00316 µM, first compound 0.001 µM
[9] = second compound 0.00316 µM, first compound 0.00316 µM
[10] = second compound 0.00316 µM, first compound 0.01 µM
[11] = second compound 0.00316 µM, first compound 0.0316 µM
[12] = second compound 0.00316 µM, first compound 0.1 µM
[13] = second compound 0.01 µM, first compound 0.000316 µM
[14] = second compound 0.01 µM, first compound 0.001 µM
[15] = second compound 0.01 µM, first compound 0.00316 µM
[16] = second compound 0.01 µM, first compound 0.01 µM
[17] = second compound 0.01 µM, first compound 0.0316 µM
[18] = second compound 0.01 µM, first compound 0.1 µM
[19] = second compound 0.0316 µM, first compound 0.000316 µM
[20] = second compound 0.0316 µM, first compound 0.001 µM
[21] = second compound 0.0316 µM, first compound 0.00316 µM
[22] = second compound 0.0316 µM, first compound 0.01 µM
[23] = second compound 0.0316 µM, first compound 0.0316 µM
[24] = second compound 0.0316 µM, first compound 0.1 µM
[25] = second compound 0.1 µM, first compound 0.000316 µM
[26] = second compound 0.1 µM, first compound 0.001 µM
[27] = second compound 0.1 µM, first compound 0.00316 µM
[28] = second compound 0.1 µM, first compound 0.01 µM
[29] = second compound 0.1 µM, first compound 0.0316 µM
[30] = second compound 0.1 µM, first compound 0.1 µM
[31] = second compound 0.316 µM, first compound 0.000316 µM
[32] = second compound 0.316 µM, first compound 0.001 µM
[33] = second compound 0.316 µM, first compound 0.00316 µM
[34] = second compound 0.316 µM, first compound 0.01 µM
[35] = second compound 0.316 µM, first compound 0.0316 µM
[36] = second compound 0.316 µM, first compound 0.1 µM
[37] = second compound 1 µM, first compound 0.000316 µM
[38] = second compound 1 µM, first compound 0.001 µM
[39] = second compound 1 µM, first compound 0.00316 µM
[40] = second compound 1 µM, first compound 0.01 µM
[41] = second compound 1 µM, first compound 0.0316 µM
[42] = second compound 1 µM, first compound 0.1 µM
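Note: spheroids exposed to compounds for seven days.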
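Throughout, for viability, T/C: 100% = DMSO vehicle control viability.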

IC50 [1]: 59.1 nM | IC50 [2]: 48.8 nM | IC50 [3]: 18 nM | IC50 [4]: < 0.316 nM | IC50 [5]: < 0.316 nM | IC50 [6]: < 0.316 nM
SMILES: CC(C)n1nc(-c2ccc3oc(N)nc3c2)c2c(N)ncnc21 + COc1c(OCCCN2CCOCC2)ccc2c3n(c(=NC(=O)c4cnc(N)nc4)nc12)CCN3
viability, T/C [7]: 94.2% | viability, T/C [8]: 99% | viability, T/C [9]: 97.3% | viability, T/C [10]: 84% | viability, T/C [11]: 62.8% | viability, T/C [12]: 39.6% | viability, T/C [13]: 98.1% | viability, T/C [14]: 83.9% | viability, T/C [15]: 83.3% | viability, T/C [16]: 74% | viability, T/C [17]: 59.6% | viability, T/C [18]: 35.4% | viability, T/C [19]: 72.1% | viability, T/C [20]: 72.2% | viability, T/C [21]: 85.8% | viability, T/C [22]: 52% | viability, T/C [23]: 44.3% | viability, T/C [24]: 23.6% | viability, T/C [25]: 41.4% | viability, T/C [26]: 39.7% | viability, T/C [27]: 40.2% | viability, T/C [28]: 31.8% | viability, T/C [29]: 23.9% | viability, T/C [30]: 13.4% | viability, T/C [31]: 17.7% | viability, T/C [32]: 17.5% | viability, T/C [33]: 15.3% | viability, T/C [34]: 13.8% | viability, T/C [35]: 14.3% | viability, T/C [36]: 8.89% | viability, T/C [37]: 13.2% | viability, T/C [38]: 10.9% | viability, T/C [39]: 10.3% | viability, T/C [40]: 12.2% | viability, T/C [41]: 12.9% | viability, T/C [42]: 8.5%

IC50 (curve of compound): > 10000 nM
SMILES: CC(Cn1ccc(-c2ccc(C#N)c(Cl)c2)n1)NC(=O)c1cc(C(C)O)[nH]n1 (stereo not drawn)
viability, T/C (compound 0.0316 µM): 98.1% and 107% and 99.7% | viability, T/C (compound 0.1 µM): 111% and 96.9% and 101% | viability, T/C (compound 0.316 µM): 101% and 107% and 113% | viability, T/C (compound 1 µM): 113% and 97.7% and 93.9% | viability, T/C (compound 3.16 µM): 99% and 105% and 104% | viability, T/C (compound 10 µM): 99.1% and 101% and 93.9%

IC50 [1]: 70.2 nM | IC50 [2]: 66.3 nM | IC50 [3]: 48.8 nM | IC50 [4]: 28.2 nM | IC50 [5]: 14.2 nM | IC50 [6]: 1.85 nM
SMILES: CC(C)n1nc(-c2ccc3oc(N)nc3c2)c2c(N)ncnc21 + CC(Nc1ccc2c(c1)OCCn1cc(N3C(=O)OCC3C(F)F)nc1-2)C(N)=O
viability, T/C [7]: 90.9% | viability, T/C [8]: 99% | viability, T/C [9]: 119% | viability, T/C [10]: 92.8% | viability, T/C [11]: 78% | viability, T/C [12]: 37.8% | viability, T/C [13]: 83.8% | viability, T/C [14]: 90.4% | viability, T/C [15]: 100% | viability, T/C [16]: 103% | viability, T/C [17]: 73.2% | viability, T/C [18]: 37.2% | viability, T/C [19]: 94.6% | viability, T/C [20]: 92.3% | viability, T/C [21]: 92.1% | viability, T/C [22]: 92.6% | viability, T/C [23]: 60.6% | viability, T/C [24]: 32.4% | viability, T/C [25]: 95.6% | viability, T/C [26]: 97.4% | viability, T/C [27]: 92.2% | viability, T/C [28]: 69.3% | viability, T/C [29]: 49.6% | viability, T/C [30]: 33.2% | viability, T/C [31]: 83.4% | viability, T/C [32]: 70.9% | viability, T/C [33]: 64.8% | viability, T/C [34]: 54.7% | viability, T/C [35]: 43.5% | viability, T/C [36]: 25.1% | viability, T/C [37]: 55.3% | viability, T/C [38]: 53.1% | viability, T/C [39]: 45% | viability, T/C [40]: 42.1% | viability, T/C [41]: 32.9% | viability, T/C [42]: 14.3%

IC50 [1]: > 10000 nM | IC50 [2]: > 10000 nM | IC50 [3]: > 10000 nM | IC50 [4]: 34.9 nM | IC50 [5]: < 31.6 nM | IC50 [6]: < 31.6 nM
SMILES: C[C@@H](NC(=O)c1ncnc(N)c1Cl)c1ncc(C(=O)Nc2cc(C(F)(F)F)c(Cl)cn2)s1 + COc1c(OCCCN2CCOCC2)ccc2c3n(c(=NC(=O)c4cnc(N)nc4)nc12)CCN3
viability, T/C [11]: 99.2% | viability, T/C [12]: 99% | viability, T/C (second compound 0.00316 µM, first compound 0.316 µM): 102% | viability, T/C (second compound 0.00316 µM, first compound 1 µM): 107% | viability, T/C (second compound 0.00316 µM, first compound 3.16 µM): 114% | viability, T/C (second compound 0.00316 µM, first compound 10 µM): 111% | viability, T/C [17]: 92.4% | viability, T/C [18]: 95.5% | viability, T/C (second compound 0.01 µM, first compound 0.316 µM): 88.2% | viability, T/C (second compound 0.01 µM, first compound 1 µM): 104% | viability, T/C (second compound 0.01 µM, first compound 3.16 µM): 104% | viability, T/C (second compound 0.01 µM, first compound 10 µM): 103% | viability, T/C [23]: 73.6% | viability, T/C [24]: 84.1% | viability, T/C (second compound 0.0316 µM, first compound 0.316 µM): 84.4% | viability, T/C (second compound 0.0316 µM, first compound 1 µM): 89.9% | viability, T/C (second compound 0.0316 µM, first compound 3.16 µM): 97.2% | viability, T/C (second compound 0.0316 µM, first compound 10 µM): 96.9% | viability, T/C [29]: 54% | viability, T/C [30]: 45.5% | viability, T/C (second compound 0.1 µM, first compound 0.316 µM): 46.5% | viability, T/C (second compound 0.1 µM, first compound 1 µM): 48% | viability, T/C (second compound 0.1 µM, first compound 3.16 µM): 50.5% | viability, T/C (second compound 0.1 µM, first compound 10 µM): 46.4% | viability, T/C [35]: 17.9% | viability, T/C [36]: 20.6% | viability, T/C (second compound 0.316 µM, first compound 0.316 µM): 19.9% | viability, T/C (second compound 0.316 µM, first compound 1 µM): 19.6% | viability, T/C (second compound 0.316 µM, first compound 3.16 µM): 23.1% | viability, T/C (second compound 0.316 µM, first compound 10 µM): 16.5% | viability, T/C [41]: 11.7% | viability, T/C [42]: 12.9% | viability, T/C (second compound 1 µM, first compound 0.316 µM): 13.2% | viability, T/C (second compound 1 µM, first compound 1 µM): 13.3% | viability, T/C (second compound 1 µM, first compound 3.16 µM): 14.5% | viability, T/C (second compound 1 µM, first compound 10 µM): 12.5%
